Consider one compound from US20230024842A1, “MUPS TABLET COMPRISING RIBOFLAVIN” (DSM IP Assets B.V., priority 2019, published 2023).

The nature of the data set: Absorption of the water solution after 15 min (coloration / riboflavin release from coated particles). Type of data set: physicochemical. The note with it: amount containing 10 mg riboflavin dissolved in 1000 ml water for 15 min; measured at 545 nm, spectrophotometer (Genesys 20). As for the experimental part: 20 mg of coated powder (containing 10 mg of Riboflavin) was dissolved in 1000 ml water for 15 min. Absorption of the solution was measured at 545 nm using a spectrophotometer (Genesys 20, thermo Scientific). Absorption of the solution was 0.065.
10 mg of riboflavin powder was dissolved in 1000 ml water for 15 min. Absorption of the solution was measured at 545 nm using a spectrophotometer (Genesys 20, thermo Scientific). Absorption of the solution was 0.386.
16.6 mg of coated powder (containing 10 mg of Riboflavin) was dissolved in 1000 ml water for 15 min. Absorption of the solution was measured at 545 nm using a spectrophotometer (Genesys 20, thermo Scientific). Absorption of the solution was 0.087.

For `Cc1cc2nc3c(=O)[nH]c(=O)nc-3n(C[C@H](O)[C@H](O)[C@H](O)CO)c2cc1C` [Comparison Example 2, riboflavin], the “Absorption of the solution” value is given as 0.386.
